The values below come from patent publication US9326516B2, “Molecules having certain pesticidal utilities, and intermediates, compositions, and processes related thereto” (Dow AgroSciences LLC, priority 2014, dated 2016).

What all share (format): in vivo
Experiment [1] concerns Beet Armyworm (Spodoptera exigua, LAPHEG). The experiment can be described thus: Bioassay on Beet Armyworm (BAW), 128-well diet tray assay. The note with it: 168 h, 50 μg/cm^2 on artificial diet, second instar BAW larvae, 25° C., five to seven days, average of eight wells, read-out: BAW % Control (or Mortality) rating. Here is the method: (§1) Certain molecules disclosed in this document were tested against BAW and CEW using procedures described in the following examples. In the reporting of the results, the “BAW & CL Rating Table” was used (See Table Section).
Bioassays on BAW were conducted using a 128-well diet tray assay. one to five second instar BAW larvae were placed in each well (3 mL) of the diet tray that had been previously filled with 1 mL of artificial diet to which 50 μg/cm^2 of the test compound (dissolved in 50 μL of 90:10 acetone-water mixture) had been applied (to each of eight wells) and then allowed to dry. Trays were covered with a clear self-adhesive cover and held at 25° C., 14:10 light-dark for five to seven days. Percent mortality was recorded for the larvae in each well; activity in the eight wells was then averaged. The results are indicated in the table entitled “Table ABC: Biological Results” (See Table Section).

Experiment [2] concerns Cabbage Looper (Trichoplusia ni, TRIPNI). The experiment can be described thus: Bioassay on Cabbage Looper (CL), 128-well diet tray assay. The note with it: 168 h, 50 μg/cm^2 on artificial diet, second instar CL larvae, 25° C., five to seven days, average of eight wells, read-out: CL % Control (or Mortality) rating. How it is done: as §1
Bioassays on CL were conducted using a 128-well diet tray assay, one to five second instar CL larvae were placed in each well (3 mL) of the diet tray that had been previously filled with 1 mL of artificial diet to which 50 μg/cm^2 of the test compound (dissolved in 50 μL of 90:10 acetone-water mixture) had been applied (to each of eight wells) and then allowed to dry. Trays were covered with a clear self-adhesive cover and held at 25° C., 14:10 light-dark for five to seven days. Percent mortality was recorded for the larvae in each well; activity in the eight wells was then averaged. The results are indicated in the table entitled “Table ABC: Biological Results” (See Table Section).

Experiment [3] concerns Green Peach Aphid (Myzus persicae, MYZUPE). The experiment can be described thus: Bioassay on Green Peach Aphid (GPA), foliar spray on cabbage seedlings. The note with it: 72 h, 200 ppm spray on infested cabbage seedlings, graded after three days, Abbott corrected % control, read-out: GPA % Control (or Mortality) rating. Here is the method: Certain molecules disclosed in this document were tested against GPA using procedures described in the following example. In the reporting of the results, the “GPA Rating Table” was used (See Table Section).
Cabbage seedlings grown in 3-inch pots, with 2-3 small (3-5 cm) true leaves, were used as test substrate. The seedlings were infested with 20-50 GPA (wingless adult and nymph stages) one day prior to chemical application. Four pots with individual seedlings were used for each treatment. Test compounds (2 mg) were dissolved in 2 mL of acetone/methanol (1:1) solvent, forming stock solutions of 1000 ppm test compound. The stock solutions were diluted 5× with 0.025% Tween 20 in water to obtain the solution at 200 ppm test compound. A hand-held aspirator-type sprayer was used for spraying a solution to both sides of […] leaves until runoff. Reference plants (solvent check) were sprayed with the diluent only containing 20% by volume of acetone/methanol (1:1) solvent. Treated plants were held in a holding room for three days at approximately 25° C. and ambient relative humidity (RH) prior to grading. Evaluation was conducted by counting the number of live aphids per plant under a microscope. Percent Control was measured by using Abbott's correction formula (W. S. Abbott, “A Method of Computing the Effectiveness of an Insecticide” J. Econ. Entomol. 18 (1925), pp. 265-267) as follows. Corrected % Control=100*(X−Y)/X where X=No. of live aphids on solvent check plants and Y=No. of live aphids on treated plants

As a reminder, the mortality is the percentage killed. On to `FC(F)(F)Oc1ccc(-n2cnc(-c3ccc(NC4=NC(c5ccccc5)CS4)cc3)n2)cc1` (stereo not drawn) [Compound F23, 4-Phenyl-N-(4-(1-(4-(trifluoromethoxy)phenyl)-1H-1,2,4-triazol-3-yl)phenyl)-4,5-dihydrothiazol-2-amine], for which the mortality at 50 µg/cm2 in experiment [1] and in experiment [2] was 0% throughout. In addition, the mortality at 200 ppm in experiment [3] turned out to be 0%.
Turning to `Fc1ccc(C2CSC(Nc3ccc(-c4ncn(-c5ccc(OC(F)(F)F)cc5)n4)cc3)=N2)cc1` (stereo not drawn) [Compound F24, 4-(4-Fluorophenyl)-N-(4-(1-(4-(trifluoromethoxy)phenyl)-1H-1,2,4-triazol-3-yl)phenyl)-4,5-dihydrothiazol-2-amine], the mortality at 50 µg/cm2 in experiment [1] and in experiment [2] was 0 to 50% each time. Also, the mortality at 200 ppm in experiment [3] was 0%.
Turning to `FC(F)(F)Oc1ccc(-n2cnc(-c3ccc(NC4=NC(c5ccc(Cl)cc5)CS4)cc3)n2)cc1` (stereo not drawn) [Compound F25, 4-(4-Chlorophenyl)-N-(4-(1-(4-(trifluoromethoxy)phenyl)-1H-1,2,4-triazol-3-yl)phenyl)-4,5-dihydrothiazol-2-amine], the mortality at 50 µg/cm2 in experiment [1] and in experiment [2] was 0% throughout. In addition, the mortality at 200 ppm in experiment [3] came to 0%.
With `FC(F)(F)Oc1ccc(-n2cnc(-c3ccc(NC4=NC(c5ccc(Br)cc5)CS4)cc3)n2)cc1` (stereo not drawn) [Compound F26, 4-(4-Bromophenyl)-N-(4-(1-(4-(trifluoromethoxy)phenyl)-1H-1,2,4-triazol-3-yl)phenyl)-4,5-dihydrothiazol-2-amine], the mortality at 50 µg/cm2 in experiment [1] is 0%; in experiment [2], 0 to 50%. Further, the mortality at 200 ppm in experiment [3] was determined as 0%.
For `FC(F)(F)Oc1ccc(-n2cnc(-c3ccc(NC4=NC(c5ccc(C(F)(F)F)cc5)CS4)cc3)n2)cc1` (stereo not drawn) [Compound F27, N-(4-(1-(4-(Trifluoromethoxy)phenyl)-1H-1,2,4-triazol-3-yl)phenyl)-4-(4-(trifluoromethyl)phenyl)-4,5-dihydrothiazol-2-amine], the mortality at 50 µg/cm2 was 0% in experiment [1] and 50 to 100% in experiment [2]. Moreover, in experiment [3], the mortality at 200 ppm is 0%.
`FC(F)(F)Oc1ccc(C2CSC(Nc3ccc(-c4ncn(-c5ccc(OC(F)(F)F)cc5)n4)cc3)=N2)cc1` (stereo not drawn) [Compound F28, 4-(4-(Trifluoromethoxy)phenyl)-N-(4-(1-(4-(trifluoromethoxy)phenyl)-1H-1,2,4-triazol-3-yl)phenyl)-4,5-dihydrothiazol-2-amine]: the mortality at 50 µg/cm2 in experiment [1] is 0 to 50%; in experiment [2], 0%. Besides, the mortality at 200 ppm in experiment [3] stood at 0%.
Turning to `FC(F)(F)Oc1ccc(-n2cnc(-c3ccc(NC4=NC(c5cccc(Cl)c5)CS4)cc3)n2)cc1` (stereo not drawn) [Compound F29, 4-(3-Chlorophenyl)-N-(4-(1-(4-(trifluoromethoxy)phenyl)-1H-1,2,4-triazol-3-yl)phenyl)-4,5-dihydrothiazol-2-amine], the mortality at 50 µg/cm2 in experiment [1] and in experiment [2] was 50 to 100% each time. For the same compound, the mortality at 200 ppm in experiment [3] amounted to 0%.
Regarding `FC(F)(F)Oc1ccc(-n2cnc(-c3ccc(NC4=NC(c5ccccc5Cl)CS4)cc3)n2)cc1` (stereo not drawn) [Compound F30, 4-(2-Chlorophenyl)-N-(4-(1-(4-(trifluoromethoxy)phenyl)-1H-1,2,4-triazol-3-yl)phenyl)-4,5-dihydrothiazol-2-amine], the mortality at 50 µg/cm2 in experiment [1] and in experiment [2] was 50 to 100% throughout. In addition, in experiment [3], the mortality at 200 ppm was 0%.
Regarding `Cc1cc(C2CSC(Nc3ccc(-c4ncn(-c5ccc(OC(F)(F)F)cc5)n4)cc3)=N2)ccc1Cl` (stereo not drawn) [Compound F31, 4-(4-Chloro-3-methylphenyl)-N-(4-(1-(4-(trifluoromethoxy)phenyl)-1H-1,2,4-triazol-3-yl)phenyl)-4,5-dihydrothiazol-2-amine], the mortality at 50 µg/cm2 in experiment [1] and in experiment [2] was 50 to 100% throughout. Further, the mortality at 200 ppm in experiment [3] is 0%.
With `COc1ccc(C2CSC(Nc3ccc(-c4ncn(-c5ccc(C(F)(F)F)cc5)n4)cc3)=N2)cc1` (stereo not drawn) [Compound F32, 4-(4-Methoxyphenyl)-N-(4-(1-(4-(trifluoromethyl)phenyl)-1H-1,2,4-triazol-3-yl)phenyl)-4,5-dihydrothiazol-2-amine], the mortality at 50 µg/cm2 in experiment [1] and in experiment [2] was 0% throughout. The mortality at 200 ppm in experiment [3] worked out at 0%.
Turning to `Cc1ccc(C2CSC(Nc3ccc(-c4ncn(-c5ccc(C(F)(F)F)cc5)n4)cc3)=N2)cc1` (stereo not drawn) [Compound F33, 4-(p-Tolyl)-N-(4-(1-(4-(trifluoromethyl)phenyl)-1H-1,2,4-triazol-3-yl)phenyl)-4,5-dihydrothiazol-2-amine], the mortality at 50 µg/cm2 in experiment [1] and in experiment [2] was 0% throughout. In addition, the mortality at 200 ppm in experiment [3] fell in the range of 0 to 80%.
As for `FC(F)(F)c1ccc(-n2cnc(-c3ccc(NC4=NC(c5ccccc5)CS4)cc3)n2)cc1` (stereo not drawn) [Compound F34, 4-Phenyl-N-(4-(1-(4-(trifluoromethyl)phenyl)-1H-1,2,4-triazol-3-yl)phenyl)-4,5-dihydrothiazol-2-amine], the mortality at 50 µg/cm2 in experiment [1] and in experiment [2] was 50 to 100% in each case. Moreover, in experiment [3], the mortality at 200 ppm was 0%.
As to `Fc1ccc(C2CSC(Nc3ccc(-c4ncn(-c5ccc(C(F)(F)F)cc5)n4)cc3)=N2)cc1` (stereo not drawn) [Compound F35, 4-(4-Fluorophenyl)-N-(4-(1-(4-(trifluoromethyl)phenyl)-1H-1,2,4-triazol-3-yl)phenyl)-4,5-dihydrothiazol-2-amine], the mortality at 50 µg/cm2 in experiment [1] was 0%; in experiment [2], 50 to 100%. Further, the mortality at 200 ppm in experiment [3] was 0%.
Consider `FC(F)(F)c1ccc(-n2cnc(-c3ccc(NC4=NC(c5ccc(Cl)cc5)CS4)cc3)n2)cc1` (stereo not drawn) [Compound F36, 4-(4-Chlorophenyl)-N-(4-(1-(4-(trifluoromethyl)phenyl)-1H-1,2,4-triazol-3-yl)phenyl)-4,5-dihydrothiazol-2-amine], for which the mortality at 50 µg/cm2 was 0% in experiment [1] and 50 to 100% in experiment [2]. Besides, in experiment [3], the mortality at 200 ppm came out at 0%.
For the compound `FC(F)(F)c1ccc(-n2cnc(-c3ccc(NC4=NC(c5ccc(Br)cc5)CS4)cc3)n2)cc1` (stereo not drawn) [Compound F37], the mortality at 50 µg/cm2 in experiment [1] and in experiment [2] was 0% each time. Further, the mortality at 200 ppm in experiment [3] is 0%.
Regarding `FC(F)(F)c1ccc(C2CSC(Nc3ccc(-c4ncn(-c5ccc(C(F)(F)F)cc5)n4)cc3)=N2)cc1` (stereo not drawn) [Compound F38, 4-(4-(Trifluoromethyl)phenyl)-N-(4-(1-(4-(trifluoromethyl)phenyl)-1H-1,2,4-triazol-3-yl)phenyl)-4,5-dihydrothiazol-2-amine], the mortality at 50 µg/cm2 fell in the range of 0 to 50% in experiment [1] and 50 to 100% in experiment [2]. For the same compound, the mortality at 200 ppm in experiment [3] was determined as 0%.
Regarding `FC(F)(F)Oc1ccc(C2CSC(Nc3ccc(-c4ncn(-c5ccc(C(F)(F)F)cc5)n4)cc3)=N2)cc1` (stereo not drawn) [Compound F39, 4-(4-(Trifluoromethoxy)phenyl)-N-(4-(1-(4-(trifluoromethyl)phenyl)-1H-1,2,4-triazol-3-yl)phenyl)-4,5-dihydrothiazol-2-amine], the mortality at 50 µg/cm2 in experiment [1] and in experiment [2] was 0% in each case. Also, the mortality at 200 ppm in experiment [3] amounted to 0%.
On to `FC(F)(F)c1ccc(-n2cnc(-c3ccc(NC4=NC(c5cccc(Cl)c5)CS4)cc3)n2)cc1` (stereo not drawn) [Compound F40, 4-(3-Chlorophenyl)-N-(4-(1-(4-(trifluoromethyl)phenyl)-1H-1,2,4-triazol-3-yl)phenyl)-4,5-dihydrothiazol-2-amine], for which the mortality at 50 µg/cm2 in experiment [1] and in experiment [2] was 50 to 100% each time. The mortality at 200 ppm in experiment [3] was 0 to 80%.
